Experimental data: patent publication US8362064B2, “Sulfonamide compounds for the treatment of respiratory disorders” (Pulmagen Theraputics (Inflammation) Limited, priority 2008, dated 2013)
Like-named read-outs stand apart in the source and are kept apart here. Marks after values point to notes of the source that are not given here. Blank lines part the entries; values can stand above or below the compound they belong to.

How the values were obtained:
[1] = system: TS induced BAL neutrophil influx; experiment: Pre-clinical mouse model of COPD inflammation (tobacco smoke induced pulmonary inflammation), BAL neutrophil counts; type: in vivo; details: mice; for Inhibition of TS induced BAL neutrophil influx: BAL 24 h after final TS; for TS induced influx of neutrophils in the BAL (in words): administered by a surrogate route for inhalation (intra-nasal)
Method: Protocols for the exposure of mice to TS, obtaining bronchoalveolar lavage (BAL), preparation of cytospin slides for differential cell counts are as outlined below.
In this exposure protocol, mice were exposed in groups of 5 in individual clear polycarbonate chambers (27 cm×16 cm×12 cm). The TS from the cigarettes was allowed to enter the exposure chambers at a flow rate of 100 mL/min. In order to minimize any potential problems caused by repeated exposure to a high level of TS (6 cigarettes), the exposure of the mice to TS was increased gradually over the exposure period to a maximum of 6 cigarettes. The exposure schedule used for 4 days was as follows:
A further group of mice was exposed to air on a daily basis for an equivalent length of time as controls (no TS exposure).
Bronchoalveolar lavage was performed as follows: the trachea was cannulated using a Portex nylon intravenous cannula (pink luer fitting) shortened to approximately 8 mm. Phosphate buffered saline (PBS) was used as the lavage fluid. A volume of 0.4 mL was gently instilled and withdrawn 3 times using a 1 mL syringe and then placed in an Eppendorf tube and kept on ice prior to subsequent determinations.
Lavage fluid was separated from cells by centrifugation and the supernatant decanted and frozen for subsequent analysis. The cell pellet was re-suspended in a known volume of PBS and total cell numbers calculated by counting a stained (Turks stain) aliquot under a microscope using a haemocytometer.
The residual cell pellet was diluted to approximately 10^5 cells per mL. A volume of 500 μL was placed in the funnel of a cytospin slide and centrifuged for 8 min at 800 rpm. The slide was air dried and stained using ‘Kwik-Diff’ solutions (Shandon) as per the proprietary instructions. When dried and cover-slipped, differential cells were counted using light microscopy. Up to 400 cells were counted by unbiased operator using light microscopy. Cells were differentiated using standard morphometric techniques.
Mice were dosed intra-nasally (surrogate for oral inhalation) with vehicle (0.2% tween 80 in saline), Example 1 (0.1 mg/kg), Example 10 (0.1 mg/kg), Example 10 (0.03 mg/kg), or Example 10 (0.01 mg/kg), at 3 hours prior to tobacco smoke exposure each day. The control group of mice received vehicle 3 hrs prior to being exposed to air daily for a maximum of 50 minutes per day. BAL was performed 24 h following the final TS exposure.
In a separate experiment, mice were dosed intra-nasally (surrogate for oral inhalation) with either vehicle (0.2% tween 80 in saline), Example 7 (0.1 mg/kg), Compound 7 (0.03 mg/kg), Example 15 (0.1 mg/kg), or Example 15 (0.03 mg/kg), 1 hour prior to tobacco smoke exposure each day. The control group of mice received vehicle 1 hr prior to being exposed to air daily for a maximum of 50 minutes per day. BAL was performed 24 h following the final TS exposure.
All results are presented as individual data points for each animal and the mean value was calculated for each group. Since tests for normality were positive the data was subjected to a one way analysis of variance test (ANOVA), followed by a Bonferroni correction for multiple comparisons in order to test for significance between treatment groups. A “p” value of <0.05 was considered to be statistically significant. Percentage inhibitions were automatically calculated within the Excel spreadsheets for the cell data using the formula below:
[formula] Inhibition data for other parameters were calculated manually using the above formula.

[2] = target: T1, human PPARγ (Homo sapiens, UniProt P37231); experiment: Human PPAR gamma agonist activity, GAL4-luciferase transactivation in transfected HEK-293 cells; type: cell-based; details: fold increase in gene transactivation (luciferase), 18 hours incubation, classes at 10 μM or 1 μM
T1 construct: expressed in transfected cells; host or cells: HEK-293 (Human Embryonic Kidney) cells
T1 sequence (P37231 1-505): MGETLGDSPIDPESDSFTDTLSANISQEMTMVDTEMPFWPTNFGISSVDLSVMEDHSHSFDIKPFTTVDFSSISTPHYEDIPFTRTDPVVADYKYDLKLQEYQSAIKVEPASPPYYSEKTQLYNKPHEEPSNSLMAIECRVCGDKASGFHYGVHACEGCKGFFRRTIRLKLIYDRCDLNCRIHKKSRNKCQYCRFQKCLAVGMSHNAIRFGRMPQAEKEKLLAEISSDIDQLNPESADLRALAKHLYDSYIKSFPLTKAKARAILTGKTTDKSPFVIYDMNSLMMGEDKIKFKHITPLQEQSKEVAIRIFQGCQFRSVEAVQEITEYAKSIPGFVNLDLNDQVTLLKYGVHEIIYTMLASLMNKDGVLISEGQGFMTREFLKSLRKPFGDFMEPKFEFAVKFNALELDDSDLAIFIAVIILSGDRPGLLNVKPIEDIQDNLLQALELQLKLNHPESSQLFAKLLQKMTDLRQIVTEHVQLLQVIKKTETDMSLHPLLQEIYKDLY
Method: HEK-293 (Human Embryonic Kidney) cells were seeded at a density of 2.8×10^5 cells/well in a 6 well plate in DMEM +10% delipidated FBS medium and incubated at 37° C., 5% CO2. At 70-80% confluency cells were transfected with human pCDNA3.1E˜PPARγ+pGL2˜GAL4x5˜Luc+pADV plasmids for 3 hours (ratio 2:0.25:1.25 μg/well). The transfection medium was then replaced with fresh medium and cells were incubated for 48 hours.
Varying final concentrations of compounds (vehicle=0.1% DMSO) of the invention were prepared in medium (50 μl/well) and added to the wells in a 96 well plate. Transfected cells were harvested and pelleted by centrifugation. The cell pellet was resuspended in medium and cells counted. 10,000 cells/well were added to the 96 well plate containing compounds of the invention and incubated for 18 hours. Luminescence produced following agonism of the PPAR gamma receptor was determined using Packard luciferase substrate reagent (100 μl/well). Light emission was quantified by counting SPC mode using a Top Count. Fold activation was calculated using the following formula: […]
All compounds show activity as PPAR gamma agonists at 30 μM. Key for relative activity: • *<8 fold increase in gene transactivation with 10 μM • **>8 fold increase in gene transactivation with 10 μM • ***>8 fold increase in gene transactivation with 1 μM.

[3] = In vivo pharmacokinetic study, plasma AUC after oral and i.v. dosing; design: species or system male Wistar rats; details: for plasma AUC following i.v. dosing (in words) / oral bioavailability (in words) / AUC: rat; for oral bioavailability (in words): oral vs i.v. plasma AUC; for AUC: plasma
Method: The suitability of the compounds exemplified in Examples 7, 10 and 15 above for inhalation for the treatment of lung diseases was examined by standard in vivo pharmacokinetic studies using male Wistar rats as known in the art. […] A single 1 mg/kg dose of Example 7, Example 10 and Example 15 was administered in 10% DMSO, 10% Cremophor ELP, 10% PEG 400, 10% EtOH and 60% Milli Q Water by the intravenous (IV) route and plasma samples taken 15 minutes, 30 minutes, 1 hour, 2 hours, 3 hours, 5 hours, 8 hours, 10 hours and 24 hours. Concentrations of Example 7, Example 10 and Example 15 in the various plasma samples were determined using standard analytical procedures.
Standard pharmacokinetic parameters following IV or oral dosing were calculated from the plasma concentration data, including Area under the curve (AUC), maximum plasma concentration (Cmax), time of maximum plasma concentration (Tmax), Elimination time (Kel) and plasma half-life (T½).
Compounds suitable for inhalation for the treatment of lung diseases have low plasma AUC following i.v. dosing indicating reduced likelihood of systemic side effects. Compounds suitable for inhalation for the treatment of lung diseases also have low oral bioavailability indicated by a much lower plasma AUC following oral dosing as that achieved by i.v. dosing. Low oral bioavailability leads to only a small fraction of the swallowed drug following inhalation being absorbed into the plasma, further reducing the likelihood of systemic side effects.

[4] = rat, cited from earlier work
[5] = 0.1 mg/kg intra-nasally 3 hours prior to TS exposure each day for 4 days
[6] = iv, male Wistar rats, single 1 mg/kg i.v. dose, read-out: Plasma AUC following 1 mg/kg i.v. dose
[7] = male Wistar rats, derived from 5 mg/kg oral dose PK data, read-out: Plasma AUC following 1 mg/kg oral dose
[8] = 0.03 mg/kg intra-nasally 1 hour prior to TS exposure each day for 4 days
[9] = 0.1 mg/kg intra-nasally 1 hour prior to TS exposure each day for 4 days

melting point: 152 to 153 °C
SMILES: Cc1ccc(-n2cc(Oc3ccc(NS(=O)(=O)c4ccc(Cl)cc4Cl)cc3)cn2)cc1 [Example 1, 2,4-dichloro-N-[4-(1-p-tolyl-1H-pyrazol-4-yloxy)-phenyl]benzene sulfonamide]
Inhibition of TS induced BAL neutrophil influx [1, 5]: 72% | TS induced influx of neutrophils in the BAL (in words) [1]: significantly inhibit | PPARγ agonist activity [2]: *** (>8 fold increase in gene transactivation with 1 μM)

SMILES: O=S(=O)(Nc1cc(Cl)c(Oc2cnn(-c3ccc(F)cc3F)c2)c(Cl)c1)c1ccc(Cl)cc1Cl [Example 3]
PPARγ agonist activity [2]: *** (>8 fold increase in gene transactivation with 1 μM)

SMILES: O=S(=O)(Nc1cc(Cl)c(Oc2cnn(-c3ccc(F)cc3)c2)c(Cl)c1)c1ccc(Cl)cc1Cl [Example 4]
PPARγ agonist activity [2]: *** (>8 fold increase in gene transactivation with 1 μM)

SMILES: O=S(=O)(Nc1ccc(Oc2cnn(-c3ccc(F)cc3)c2)c(Cl)c1)c1ccc(Cl)cc1Cl [Example 5]
PPARγ agonist activity [2]: *** (>8 fold increase in gene transactivation with 1 μM)

SMILES: O=S(=O)(Nc1ccc(Oc2cnn(-c3ccc(Cl)cc3)c2)c(Cl)c1)c1ccc(Cl)cc1Cl [Example 6]
PPARγ agonist activity [2]: *** (>8 fold increase in gene transactivation with 1 μM)

plasma AUC following i.v. dosing (in words) [3]: low | oral bioavailability (in words) [3]: low | AUC [3, 6]: 1080 ± 240 ng·h/mL | AUC [3, 7]: 40 ± 8 ng·h/mL
SMILES: O=S(=O)(Nc1ccc(Oc2cnn(-c3ccc(F)c(Cl)c3)c2)c(Cl)c1)c1ccc(Cl)cc1Cl [Example 7]
Inhibition of TS induced BAL neutrophil influx [1, 8]: 37% | Inhibition of TS induced BAL neutrophil influx [1, 9]: 64% | TS induced influx of neutrophils in the BAL (in words) [1]: significantly inhibit | PPARγ agonist activity [2]: ** (>8 fold increase in gene transactivation with 10 μM)

SMILES: Cc1ccc(S(=O)(=O)Nc2ccc(Oc3cnn(-c4ccc(F)cc4)c3)c(Cl)c2)cc1 [Example 8]
PPARγ agonist activity [2]: ** (>8 fold increase in gene transactivation with 10 μM)

SMILES: Cc1cc(NS(=O)(=O)c2ccc(Cl)cc2Cl)ccc1Oc1cnn(-c2ccc(F)cc2)c1 [Example 9]
PPARγ agonist activity [2]: *** (>8 fold increase in gene transactivation with 1 μM)

Plasma AUC following 1 mg/kg oral dose ([3]; male Wistar rats, oral gavage (5 mg/kg given), limit of detection was 5 ng/ml): None | plasma AUC following i.v. dosing (in words) [3]: low | oral bioavailability (in words) [3]: low | AUC [3, 6]: 210 ± 60 ng·h/mL
SMILES: Cc1ccc(-n2cc(Oc3ccc(NS(=O)(=O)c4ccc(Cl)cc4Cl)cc3)cn2)c(C)c1 [Example 10]
Inhibition of TS induced BAL neutrophil influx ([1]; 0.01 mg/kg intra-nasally 3 hours prior to TS exposure each day for 4 days): 42% | Inhibition of TS induced BAL neutrophil influx ([1]; 0.03 mg/kg intra-nasally 3 hours prior to TS exposure each day for 4 days): 50% | Inhibition of TS induced BAL neutrophil influx [1, 5]: 72% | TS induced influx of neutrophils in the BAL (in words) [1]: significantly inhibit | PPARγ agonist activity [2]: *** (>8 fold increase in gene transactivation with 1 μM)

SMILES: Cc1ccc(-n2cc(Oc3ccc(NS(=O)(=O)c4ccc(C)cc4)cc3)cn2)cc1 [Example 11]
PPARγ agonist activity [2]: * (<8 fold increase in gene transactivation with 10 μM)

SMILES: O=S(=O)(Nc1ccc(Oc2cnn(-c3ccc(F)cc3)c2)c(Cl)c1)c1ccccc1 [Example 12]
PPARγ agonist activity [2]: * (<8 fold increase in gene transactivation with 10 μM)

SMILES: O=S(=O)(Nc1ccc(Oc2cnn(-c3ccccc3)c2)c(Cl)c1)c1ccc(Cl)cc1Cl [Example 13]
PPARγ agonist activity [2]: *** (>8 fold increase in gene transactivation with 1 μM)

SMILES: Cc1ccc(S(=O)(=O)Nc2ccc(Oc3cnn(-c4ccc(C)cc4C)c3)cc2)cc1 [Example 14]
PPARγ agonist activity [2]: * (<8 fold increase in gene transactivation with 10 μM)

plasma AUC following i.v. dosing (in words) [3]: low | oral bioavailability (in words) [3]: low | AUC [3, 6]: 170 ± 60 ng·h/mL | AUC [3, 7]: 1 ± 2 ng·h/mL
SMILES: Cc1ccc(S(=O)(=O)Nc2ccc(Oc3cnn(-c4ccc(C)cc4C)c3)c(Cl)c2)cc1 [Example 15]
Inhibition of TS induced BAL neutrophil influx [1, 8]: 66% | Inhibition of TS induced BAL neutrophil influx [1, 9]: 69% | TS induced influx of neutrophils in the BAL (in words) [1]: significantly inhibit | PPARγ agonist activity [2]: ** (>8 fold increase in gene transactivation with 10 μM)

SMILES: CN(CCOc1ccc(CC2SC(=O)NC2=O)cc1)c1ccccn1 (stereo not shown) [Rosiglitazone]
plasma AUC following an i.v. dose (in words) ([4]; i.v.): high | oral bioavailability (in words) ([4]; oral vs i.v. plasma AUC): high | Plasma AUC following 1 mg/kg i.v. dose ([4]; FDA Pharmacology review data, derived from 0.4 mg/kg i.v. dose PK data): 13.75*** μg*hr/ml | Plasma AUC following 1 mg/kg oral dose ([4]; FDA Pharmacology review data, derived from 0.4 mg/kg oral dose PK data): 14.28*** μg*hr/ml
